Assay results taken from US20090324508A1, “Broad Spectrum and Skin Friendly Disinfecting Composition” (CENTENNIAL VENTURES B.V., priority 2006, published 2009).

Assay: Foam test, dispensing from a foam dispenser
Format: physicochemical
Conditions: in the presence of an alcohol
Description: Preferably, the foam booster used in the composition of the invention provides a stable foam when dispensing a composition consisting of 36% (w/w) ethanol and 0.2% (w/w), preferably 0.3% (w/w), of the foam booster from a foam dispenser with a relatively high air to liquid ratio, preferably an air to liquid ratio of 9-11, more preferably an air to liquid ratio of 11, on an inert and smooth surface at about 20° C. A suitable foam pump is for instance the L11 foam pump from Rexam Airspray, which has an air to liquid ratio of 11, a liquid output volume of 0.75 ml, a stroke of 14.8 mm. The foam is optimally produced by applying regular speed and pressure onto the foam dispenser, as is known to one skilled in the art.
According to this invention, a stable foam is a foam that remains as a foam for at least 5-10 seconds, preferably for at least 10-15 seconds, more preferably for at least 15-20 seconds, even more preferably for at least 20-25 seconds, most preferably for at least 25-30 seconds, as measured immediately after dispensing from a foam dispenser as mentioned above.

With sodium lauryl ether sulphate the “Foam stability as foam booster” value was “do not provide a stable foam”.

With `CCCCCCCCCCCCc1ccc(S(=O)(=O)O)cc1` [dodecyl benzene sulphonic acid] the “Foam stability as foam booster” value was “do not provide a stable foam”.
